# How the values were obtained:
# Coliforms = assay: microbiological quality of treated hamburgers and fresh sausage: coliform count (MPN)
# Procedure: (§1) The tests were conducted on meat products such as hamburgers and fresh sausage at different doses, with and without the usual preservatives (sulfites).
# (§2) Each sample is prepared in quintuplicate and microbiological quality control over time is conducted, a triplicate of each sample being performed.
# The method used to detect lactose-positive enterobacteria (coliforms) is based on its capacity to ferment lactose with the production of acid and gas in the presence of bile salts.
# To that end a count was performed in liquid medium to determine a MPN on Brilliant Green Bile Lactose Broth (Merck Brila Broth).
# Said Brilliant Broth is prepared in a test tube rack with 3 series of three tubes for each one of the samples to be analyzed. Each tube contains 10 ml of Brila Broth and 1 Durham tube.
# 1 mL of the dilution of the sample at 1:10 or (−1) is poured into each one of the tubes of the first series.
# 1 mL of the dilution of the sample at 1:100 or (−2) is poured into each one of the tubes of the second series.
# 1 mL of the dilution of the sample at 1:1000 or (−3) is poured into each one of the tubes of the third series.
# The three series are incubated at 31±1° C., taking a reading at 24 and 48 hours.
# The reaction is positive when gas discharge occurs inside the Durham tube, at least in 1/10 of its volume.
# The Most Probable Number (MPN) table is used with the number of positive tubes in each series, and the data is extrapolated.
# The result is finally expressed as the coliform count per gram of sample.
# (§3) Two different raw meat products (sausages and hamburgers) treated with different allicin doses are prepared. • The used testing doses were: 25, 50 and 100 ppm.
# (§4) Five samples of each product (hamburger and sausage) are prepared, each one of them being analyzed in triplicate.
# (§5) The microbiological parameters analyzed were as follows: • Total mesophilic aerobes • Coliforms • Escherichia coli • Salmonella (presence/absence in 25 g) • Said parameters were analyzed at different times: • 0 days • 4 days • 7 days • The sample references resulted as follows: […]
# Salmonella = assay: microbiological quality of treated hamburgers and fresh sausage: Salmonella study
# Procedure: as §1, §2
# The systematic testing used consisted of three steps: • a) Pre-enrichment in non-selective liquid medium. • b) Enrichment in selective liquid medium. • c) Differential isolation on selective solid means. a) Non-Selective Pre-Enrichment
# The medium of choice is buffered peptone water.
# 25 g of the product to be analyzed are aseptically weighed and diluted in 225 mL of buffered peptone water to obtain a 1:10 dilution. It is mixed well and taken to be incubated at 37° C. for 16-20 hours.
# The pre-enrichment culture is stirred and 10 mL thereof are taken with a sterile pipette, seeding it onto 100 mL of selenite-cysteine broth (Merck), incubating it at 37° C. for 18-24 hours.
# From the culture obtained in the selective liquid medium, selenite-cysteine broth, seeding is performed on the second dish, in duplicate and without overloading the loop, on xylose lysine deoxycholate (XLD, Merck) agar, Rambach agar (Merck), and SS agar (Merck).
# All the seeded dishes are incubated in an oven at 37° C. for 24-48 hours.
# The test is positive when typical colonies are detected in at least two of the four mediums, which are confirmed with supplementary biochemical tests.
# as §3, §4, §5
# [1] = tested on: Micrococcus luteus, isolated from a spiced sausage; assay: agar diffusion, inhibition halo; type: cell-based
# Procedure: (§6) In order to evaluate the antimicrobial activity the agar diffusion technique with cellulose discs of 6 mm in diameter impregnated with the different active ingredient testing doses was used.
# (§7) Antibacterial capacity was assessed against suspensions of 10^6 cells/ml, prepared from pure young cultures of each one of the strains to be tested. The culture medium used was Müller-Hinton medium (Merck).
# (§8) After incubating the culture dishes inoculated with the different organisms at the corresponding temperatures, the microbial inhibition halos that appeared were measured, and said measurement includes the 6 mm diameter of the cellulose discs.
# [2] = tested on: Listeria monocytogenes, ATCC 15313; assay: agar diffusion, inhibition halo; type: cell-based
# Procedure: as §6, §7, §8
# [3] = tested on: Bacillus megaterium, ATCC 33085; assay: agar diffusion, inhibition halo; type: cell-based
# Procedure: as §6, §7, §8
# [4] = tested on: Bacillus cereus, CECT 1178; assay: agar diffusion, inhibition halo; type: cell-based
# Procedure: as §6, §7, §8
# [5] = tested on: Escherichia coli, CECT 515; assay: agar diffusion, inhibition halo; type: cell-based
# Procedure: as §6, §7, §8
# Total mesophilic aerobes = assay: microbiological quality of treated hamburgers and fresh sausage: total mesophilic aerobe count
# Procedure: as §1, §2
# The method used to determine the number of germs per gram was the dish count number, starting from serial decimal dilutions of the sample and using the surface seeding technique.
# The culture medium used was nutrient agar (Merck PCA) prepared on Petri dishes on which, from the serial decimal dilutions of the sample (from −1 . . . to −6 in Merck triptone soy broth or TSB), 0.1 mL of each one of the dilutions was transferred.
# Dish incubation temperature was 31±1° C.
# The final result is expressed as the total microorganism count per gram of sample (said count is performed in the dilutions in which between 30-300 colonies/dish are detected).
# as §3, §4, §5
# [6] = hamburger, 25 ppm of allicin (H-1), t = 0 days
# [7] = hamburger, 25 ppm of allicin (H-1), t = 4 days
# [8] = hamburger, 50 ppm of allicin (H-2), t = 0 days
# [9] = hamburger, 50 ppm of allicin (H-2), t = 4 days
# [10] = hamburger, 100 ppm of allicin (H-3), t = 0 days
# [11] = hamburger, 100 ppm of allicin (H-3), t = 4 days
# [12] = sausage, 25 ppm of allicin (S-1), t = 0 days
# [13] = sausage, 25 ppm of allicin (S-1), t = 4 days
# [14] = sausage, 50 ppm of allicin (S-2), t = 0 days
# [15] = sausage, 50 ppm of allicin (S-2), t = 4 days
# [16] = sausage, 100 ppm of allicin (S-3), t = 0 days
# [17] = sausage, 100 ppm of allicin (S-3), t = 4 days
compound,measurement,setting,value
"C=CCS[S+]([O-])CC=C (centres unmarked) [Allicin, allyl allylthiosulfinate]",Coliforms,Coliforms; [6],150 cfu/g
same,Coliforms,Coliforms; [7],>2400 cfu/g
same,Coliforms,Coliforms; [8],150 cfu/g
same,Coliforms,Coliforms; [9],1100 cfu/g
same,Coliforms,Coliforms; [10],150 cfu/g
same,Coliforms,Coliforms; [11],150 cfu/g
same,Coliforms,Coliforms; [12],3 cfu/g
same,Coliforms,Coliforms; [13],21 cfu/g
same,Coliforms,Coliforms; [14],<3 cfu/g
same,Coliforms,Coliforms; [15],7 cfu/g
same,Coliforms,Coliforms; [16],<3 cfu/g
same,Coliforms,Coliforms; [17],<3 cfu/g
same,Salmonella growth,Salmonella; allicin doses of 50 and 100 ppm,able to inhibit Salmonella growth
same,Salmonella (in 25 g),Salmonella; [6],presence
same,Salmonella (in 25 g),Salmonella; [7],presence
same,Salmonella (in 25 g),Salmonella; [8],presence
same,Salmonella (in 25 g),Salmonella; [9],presence
same,Salmonella (in 25 g),Salmonella; [10],presence
same,Salmonella (in 25 g),Salmonella; [11],presence
same,Salmonella (in 25 g),Salmonella; [12],absence
same,Salmonella (in 25 g),Salmonella; [13],presence
same,Salmonella (in 25 g),Salmonella; [14],absence
same,Salmonella (in 25 g),Salmonella; [15],presence
same,Salmonella (in 25 g),Salmonella; [16],absence
same,Salmonella (in 25 g),Salmonella; [17],presence
same,inhibition halo diameter,[1]; 25 ppm,19 mm
same,inhibition halo diameter,[1]; 50 ppm,25 mm
same,inhibition halo diameter,[1]; 100 ppm,32 mm
same,inhibition halo diameter,[2]; 25 ppm,18 mm
same,inhibition halo diameter,[2]; 50 ppm,24 mm
same,inhibition halo diameter,[2]; 100 ppm,30 mm
same,inhibition halo diameter,[3]; 25 ppm,23 mm
same,inhibition halo diameter,[3]; 50 ppm,27 mm
same,inhibition halo diameter,[3]; 100 ppm,34 mm
same,inhibition halo diameter,[4]; 25 ppm,22 mm
same,inhibition halo diameter,[4]; 50 ppm,29 mm
same,inhibition halo diameter,[4]; 100 ppm,35 mm
same,inhibition halo diameter,[5]; 25 ppm,14 mm
same,inhibition halo diameter,[5]; 50 ppm,17 mm
same,inhibition halo diameter,[5]; 100 ppm,21 mm
same,reduction of total mesophilic aerobes with respect to untreated controls,"Total mesophilic aerobes; allicin 100 ppm, all sausage samples and hamburgers, maintained from 0 to 4 days",reduction of one logarithmic unit
same,Total aerobes,Total mesophilic aerobes; [6],2.17 × 10^6 cfu/g
same,Total aerobes,Total mesophilic aerobes; [7],1.56 × 10^8 cfu/g
same,Total aerobes,Total mesophilic aerobes; [8],9.01 × 10^5 cfu/g
same,Total aerobes,Total mesophilic aerobes; [9],6.23 × 10^7 cfu/g
same,Total aerobes,Total mesophilic aerobes; [10],4.08 × 10^5 cfu/g
same,Total aerobes,Total mesophilic aerobes; [11],3.17 × 10^7 cfu/g
same,Total aerobes,Total mesophilic aerobes; [12],2.24 × 10^5 cfu/g
same,Total aerobes,Total mesophilic aerobes; [13],3.08 × 10^6 cfu/g
same,Total aerobes,Total mesophilic aerobes; [14],8.99 × 10^4 cfu/g
same,Total aerobes,Total mesophilic aerobes; [15],2.72 × 10^6 cfu/g
same,Total aerobes,Total mesophilic aerobes; [16],6.06 × 10^4 cfu/g
same,Total aerobes,Total mesophilic aerobes; [17],3.10 × 10^5 cfu/g

# Reference: patent US20070160725A1, “Use of extracts and compounds of allium-genus plants as preservatives in the food and agri-food industries” (MOUSALA, S., L., priority 2004, published 2007)
